Data published in PubChem BioAssay (NCI).
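Where inhibition never reached the appropriate level, the endpoint shown equals the highest concentration tested. Otherwise, values were interpolated linearly from a five-concentration, 48-hour dose response in 96-well plates. GI50: concentration for 50% inhibition of growth. At the TGI there is no net growth.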

Columns and labels:
Test in all cases: NCI tumour cell line growth inhibition, 48 h
[1] = test system: A549 NSCLC
[2] = test system: CAKI-1 renal
[3] = test system: HCC-2998 colon
[4] = test system: HOP-92 NSCLC
[5] = test system: M14 melanoma
[6] = test system: NCI-H460 lung
[7] = test system: OVCAR-3 ovarian
[8] = test system: OVCAR-8 ovarian
[9] = test system: SF-539 CNS
[10] = test system: SK-MEL-2 melanoma
[11] = test system: SK-MEL-5 melanoma
[12] = test system: SNB-19 CNS
[13] = test system: SW-620 colon
[14] = test system: UACC-62 melanoma
[15] = test system: UO-31 renal
[16] = test system: MCF7 breast
[17] = test system: MDA-MB-435
[18] = test system: OVCAR-5 ovarian

Structure (SMILES) | TGI [1] [µM] | TGI [2] [µM] | TGI [3] [µM] | TGI [4] [µM] | GI50 [5] [µM] | TGI [5] [µM] | TGI [6] [µM] | GI50 [7] [µM] | TGI [7] [µM] | TGI [8] [µM] | TGI [9] [µM] | TGI [10] [µM] | TGI [11] [µM] | TGI [12] [µM] | TGI [13] [µM] | TGI [14] [µM] | TGI [15] [µM] | TGI [16] [µM] | TGI [17] [µM] | TGI [18] [µM]
CC(C)C(=O)CC(c1ccc(Cl)cc1)N1N=C(C(C)C)CC1c1ccc(Cl)cc1 (stereo not drawn) | > 100 | > 94.9 | > 100 | > 100 | 54.5 | > 100 | > 100 | 45.6 | > 100 | > 65.8 | > 42.7 | > 92.2 | > 100 | > 100 | > 100 | > 100 | > 100 | – | – | –
O=C(O)CCc1nc2ccccc2[nH]1 | > 100 | > 100 | > 100 | > 100 | – | > 100 | > 100 | – | > 100 | > 100 | > 100 | > 100 | > 100 | > 100 | > 100 | > 100 | > 100 | > 100 | > 100 | > 100
O=C(O)c1cc(=O)c2c(OCC(O)COc3cccc4oc(C(=O)O)cc(=O)c34)cccc2o1 | > 100 | > 100 | > 100 | > 93.8 | – | > 100 | > 100 | – | > 100 | > 100 | > 100 | > 79.2 | 99.2 | > 100 | > 100 | > 100 | > 100 | > 100 | > 100 | > 100
C/C(=N\NC(=S)NCCCCNC(=S)N/N=C(\C)c1ccccn1)c1ccccc1 | > 58 | > 100 | > 100 | > 57.3 | – | – | 4.71 | – | > 65.2 | 5.63 | 3.86 | 97.3 | – | > 87.1 | > 100 | 7.03 | 13.1 | – | > 100 | > 85.6
COc1ccc(C(O)(c2ccccc2)c2nccc3ccccc23)cc1 (stereo not drawn) | > 100 | > 100 | – | – | – | 8.34 | 38.9 | – | 6.32 | > 100 | – | – | 12.7 | > 100 | – | > 100 | > 100 | > 100 | > 100 | > 100
COc1ccc(-c2cc(-c3ccc(O)cc3O)c(C#N)c(=O)[nH]2)cc1 | 62 | 64.1 | – | 31 | – | 35.4 | 59.7 | – | 48.6 | 85.2 | 34.7 | – | 34.6 | 53.3 | 50.3 | 36.2 | 69.6 | > 100 | 36.4 | 43.3
NNC(=O)CCSc1ccccc1 | > 100 | > 100 | > 100 | – | – | > 100 | > 100 | – | > 100 | > 100 | > 100 | > 100 | > 100 | > 100 | > 100 | > 100 | > 100 | > 100 | > 100 | > 100
COc1cc2c(cc1OCCCOS(C)(=O)=O)N=C[C@@H]1CCCN1C2=O | > 100 | > 100 | > 100 | > 100 | – | > 100 | > 100 | – | > 100 | > 100 | > 100 | > 100 | > 100 | > 100 | > 100 | > 100 | > 100 | > 100 | > 100 | –
COc1cc2cc(C(=O)Nc3cc4n(n3)-c3ccccc3C4)[nH]c2c(OC)c1OC | 7.63 | 6.3 | 21 | 16.6 | – | 6.86 | 7.1 | – | 11.8 | 3.78 | 17.8 | 8.39 | 5.23 | 27.6 | 19.1 | – | 6.8 | 14.1 | 5.28 | 17.8
